From US6403576B1, “Antifungal and antiparasitic compounds” (priority 1998, dated 2002)
≈ marks a conversion by molar mass, not a printed value. Where two headings read alike, the source gives them in different places. One block for each compound: values may come before it.

What was measured:
[1] = tested on: Leishmania major promastigotes; details: cited from earlier work
[2] = cited from earlier work
J-774 A.1 macrophages = details: 10 uM; not from mevalonate; cited from earlier work
[3] = 60 mg/day for 3 months; cited from earlier work
[4] = tested on: Trichomonas vaginalis CDC-085 (ATCC#50143); test: Trichomonad MIC assay, 96-well, 48 h; assay type: cell-based
Procedure: (§1) Trichomonad In Vitro and in Vivo Drug Screening Methods.(a) In Vitro: Several strains of T. vaginalis are maintained, covering the spectrum of metronidazole resistance: CDC85 (highly resistant); RU384, RU383, IR78 (moderately resistant); NYH286, RU284, RU393, C1-NIH (sensitive). These strains are routinely cultivated in a non-defined medium incorporating tryptose, yeast extract, maltose and supplemented with 10% horse serum.
(§2) In in vitro drug studies, plant extracts are tested using a 96-well plate assay as described by Meingassner et al., (1978, Antimicrob Agents Chemother 13, 1-3). This method uses only 200 ul of medium/well and thus uses very little plant extract. Results (in triplicate) are presented as “Minimal Inhibitory Concentration” (MIC) the lowest concentration completely blocking growth (Meingassner et al., 1978, supra). This method is also useful in comparing susceptibility of various strains (Meingassner et al., 1978, supra; Yarlett et al., 1987, Mol Biochem Parasitol 24, 255-261). […] Since vaginal O2 tensions are 1/20th to ¼th of atmospheric (Wagner et al., 1978, Fertil Steril 30, 50-53), it is more physiological to do drug sensitivity testing under conditions approaching this.
(§3) The trichomonad screen consists of two human pathogenic Trichomonas vaginalis strains and a livestock parasite Tritrichomonas foetus. The T. vaginalis isolates include a metronidazole sensitive isolate (C1-NIH: ATCC 30001) and a strain highly resistant to metronidazole (CDC-085: ATCC 50143). […] Table 4 details data from the initial group of 19 primary extracts. […] The results to Dec. 31, 1997 appear in Table 5.

[5] = tested on: Trichomonas vaginalis strain C1-NIH (ATCC #30001); test: Trichomonad MIC assay, 96-well, 48 h; assay type: cell-based
Procedure: as §1, §2, §3

[6] = tested on: Tritrichomonas foetus KV-1; test: Trichomonad MIC assay, 96-well, 48 h; assay type: cell-based
Procedure: as §1, §2, §3

[7] = rats; cited from earlier work
[8] = in vivo; cited from earlier work

SMILES: Nc1ccc(S(=O)(=O)c2ccc(N)cc2)cc1 [Dapsone, 4,4′-diaminodiphenyl sulfone]
reversibility of inhibition by p-aminobenzoate (PABA) folate or thymidine [1]: not reversible

SMILES: CC(=O)N1CCN(c2ccc(OCC3COC(Cn4ccnc4)(c4ccc(Cl)cc4Cl)O3)cc2)CC1 (stereo not shown) [ketoconazole]
decreased plasma cholesterol from pretreatment baseline ([2]; 200 mg/day): 15% | decreased plasma cholesterol from pretreatment baseline ([2]; 1200 mg/day): 27%

SMILES: CC(C)=CCC/C(C)=C/C=C/C(C)=C/C=C/C(C)=C/C=C/C=C(C)/C=C/C=C(C)/C=C/C=C(\C)CCC=C(C)C [lycopene]
cholesterol synthesis inhibited from acetate (J-774 A.1 macrophages): 73% | decrease in plasma LDL cholesterol [3]: 14%

MIC ([4]; ATCC50143, Table 4, 48 hrs, metronidazole-resistant strain, read-out: MIC CDC-085 48 hrs): 400 µg/mL (≈ 2340 µM) | MIC ([5]; ATCC30001, Table 4, 48 hrs, read-out: MIC C1-HIH 48 hrs): 3 µg/mL (≈ 17.5 µM) | MIC ([6]; Table 4, 48 hrs, read-out: MIC KV-1 48 hrs): 4 µg/mL (≈ 23.4 µM)
SMILES: Cc1ncc([N+](=O)[O-])n1CCO [Metronidazole]
MIC ([4]; ATCC50143, Table 5, new plant extracts, read-out: MIC CDC-085): 400 µg/mL (≈ 2340 µM) | MIC ([5]; ATCC30001, Table 5, new plant extracts, read-out: MIC C1-NIH): 3 µg/mL (≈ 17.5 µM) | MIC ([6]; Table 5, new plant extracts, read-out: MIC KV1): 3 µg/mL (≈ 17.5 µM)

SMILES: CC/C(=C(/c1ccc(OCCN(C)C)cc1)c1cccc(O)c1)c1ccccc1 [Droloxifene]
reduced total serum cholesterol compared to controls [7]: 65-70%

SMILES: Nc1nc(N)nc(Nc2ccc([As]3SCC(CO)S3)cc2)n1 (stereo not shown) [Melarsoprol]
incidence of cerebral episodes [8]: 3-5%
